In test [1] the target is T1, Integrin alpha-4/beta-1 (Homo sapiens, UniProt P05556+P13612). Briefly: Inhibition of human VCAM binding to VLA-4 of Ramos cells in ELISA. The test is classed as cell-based. (ELISA stands for enzyme-linked immunosorbent assay.)
Test [2] has as its target T1, Integrin alpha-4/beta-1. As to the kind of experiment: Inhibition of human VCAM and Ramos cell VLA-4 interaction. The format is cell-based.

The term IC50 denotes the concentration that gives 50% inhibition.

T1 sequence (P05556 whole entry): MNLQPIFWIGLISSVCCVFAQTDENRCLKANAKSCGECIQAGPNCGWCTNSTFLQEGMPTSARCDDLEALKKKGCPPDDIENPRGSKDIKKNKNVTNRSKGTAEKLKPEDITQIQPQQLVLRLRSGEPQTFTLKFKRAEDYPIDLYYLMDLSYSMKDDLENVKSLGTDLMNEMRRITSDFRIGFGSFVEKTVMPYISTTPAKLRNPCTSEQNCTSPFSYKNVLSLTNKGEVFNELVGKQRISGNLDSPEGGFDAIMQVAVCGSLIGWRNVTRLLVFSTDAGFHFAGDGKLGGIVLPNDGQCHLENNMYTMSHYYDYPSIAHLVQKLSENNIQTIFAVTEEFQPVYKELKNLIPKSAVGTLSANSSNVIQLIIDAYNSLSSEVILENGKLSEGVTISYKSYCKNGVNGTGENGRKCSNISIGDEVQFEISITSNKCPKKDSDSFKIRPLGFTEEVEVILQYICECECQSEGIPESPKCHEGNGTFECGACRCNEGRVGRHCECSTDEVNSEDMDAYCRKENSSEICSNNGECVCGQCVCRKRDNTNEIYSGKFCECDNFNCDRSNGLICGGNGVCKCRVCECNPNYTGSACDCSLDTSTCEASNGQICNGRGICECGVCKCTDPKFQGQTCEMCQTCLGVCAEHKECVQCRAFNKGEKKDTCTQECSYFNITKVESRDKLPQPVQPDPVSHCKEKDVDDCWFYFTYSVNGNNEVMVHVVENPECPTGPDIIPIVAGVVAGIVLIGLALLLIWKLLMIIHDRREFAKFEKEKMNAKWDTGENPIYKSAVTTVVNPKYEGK
T1 sequence (P13612 whole entry): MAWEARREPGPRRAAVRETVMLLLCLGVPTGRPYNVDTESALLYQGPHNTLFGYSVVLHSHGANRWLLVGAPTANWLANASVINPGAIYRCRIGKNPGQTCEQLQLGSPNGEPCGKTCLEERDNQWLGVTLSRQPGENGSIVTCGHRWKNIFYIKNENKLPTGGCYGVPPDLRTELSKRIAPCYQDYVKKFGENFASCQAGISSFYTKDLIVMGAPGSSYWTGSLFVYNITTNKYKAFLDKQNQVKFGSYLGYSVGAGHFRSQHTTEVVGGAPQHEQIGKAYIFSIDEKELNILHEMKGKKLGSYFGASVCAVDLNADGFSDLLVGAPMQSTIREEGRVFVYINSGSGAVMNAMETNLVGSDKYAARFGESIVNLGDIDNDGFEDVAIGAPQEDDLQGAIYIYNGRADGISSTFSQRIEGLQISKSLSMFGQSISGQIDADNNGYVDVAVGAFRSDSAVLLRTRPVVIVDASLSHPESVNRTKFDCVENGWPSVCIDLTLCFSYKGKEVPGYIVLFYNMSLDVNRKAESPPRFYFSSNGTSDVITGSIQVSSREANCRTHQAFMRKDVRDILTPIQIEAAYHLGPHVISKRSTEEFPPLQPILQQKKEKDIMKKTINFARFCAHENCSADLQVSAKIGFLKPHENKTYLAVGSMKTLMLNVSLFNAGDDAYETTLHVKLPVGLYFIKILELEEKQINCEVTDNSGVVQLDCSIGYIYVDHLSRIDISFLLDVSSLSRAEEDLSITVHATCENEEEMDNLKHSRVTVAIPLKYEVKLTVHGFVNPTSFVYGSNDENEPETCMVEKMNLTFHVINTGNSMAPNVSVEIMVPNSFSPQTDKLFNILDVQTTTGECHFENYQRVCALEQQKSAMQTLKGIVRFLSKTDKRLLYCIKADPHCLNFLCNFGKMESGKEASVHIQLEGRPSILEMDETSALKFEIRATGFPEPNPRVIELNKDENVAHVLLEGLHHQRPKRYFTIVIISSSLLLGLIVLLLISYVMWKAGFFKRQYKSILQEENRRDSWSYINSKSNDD

Turning to `O=C(O)[C@H](Cc1ccc(N2C(=O)CC(c3ccccc3)C2=O)cc1)NC(=O)[C@@H]1CCC(=O)N1Cc1ccccc1` (stereo not given in full), the IC50 on Integrin alpha-4/beta-1 [1] came to 1.7 nM; on Integrin alpha-4/beta-1 [2], 92 nM.
On to `O=C(O)[C@H](Cc1ccc(N2Cc3ccccc3C2=O)cc1)NC(=O)[C@@H]1CCC(=O)N1Cc1ccccc1`, for which the IC50 at Integrin alpha-4/beta-1 [1] came out at 2.7 nM; against Integrin alpha-4/beta-1 [2], 500 nM.
The corresponding values for `O=C(O)[C@H](Cc1ccc(N2C(=O)CCC2=O)cc1)NC(=O)[C@@H]1CCC(=O)N1Cc1ccccc1` are 3.2 nM and 286 nM.
For the compound `O=C(O)[C@H](Cc1ccc(N2C(=O)c3ccccc3C2=O)cc1)NC(=O)[C@@H]1CCC(=O)N1Cc1ccccc1`, the IC50 worked out at 0.52 nM at Integrin alpha-4/beta-1 [1] and 20 nM at Integrin alpha-4/beta-1 [2].
Regarding `O=C(O)[C@H](Cc1ccc(N2C(=O)CC(Cc3ccccc3)C2=O)cc1)NC(=O)[C@@H]1CCC(=O)N1Cc1ccccc1` (stereo not given in full), the results for the concentration for half-maximal inhibition (IC50) on Integrin alpha-4/beta-1 [1] and against Integrin alpha-4/beta-1 [2] were 0.94 nM and 123 nM, respectively.
For the compound `O=C(O)[C@H](Cc1ccc(N2C(=O)CCC(c3ccccc3)C2=O)cc1)NC(=O)[C@@H]1CCC(=O)N1Cc1ccccc1` (stereo not given in full), the IC50 is 0.99 nM on Integrin alpha-4/beta-1 [1] and 184 nM at Integrin alpha-4/beta-1 [2].
With `O=C(O)[C@H](Cc1ccc(N2C(=O)CC3(CCCC3)CC2=O)cc1)NC(=O)[C@@H]1CCC(=O)N1Cc1ccccc1`, the IC50 on Integrin alpha-4/beta-1 [1] is 0.54 nM; on Integrin alpha-4/beta-1 [2] it was 57 nM.
Consider `O=C(Nc1ccc(C[C@H](NC(=O)[C@@H]2CCC(=O)N2Cc2ccccc2)C(=O)O)cc1)c1c(Cl)cccc1Cl`, for which the IC50 on Integrin alpha-4/beta-1 [1] stood at 0.37 nM; against Integrin alpha-4/beta-1 [2] it was 12 nM.
On to `O=C(O)[C@H](Cc1ccc(N2CCCC2=O)cc1)NC(=O)[C@@H]1CCC(=O)N1Cc1ccccc1`, for which the IC50 at Integrin alpha-4/beta-1 [1] was found to be 16 nM.
For `O=C(O)[C@H](Cc1ccc(N2C(=O)Cc3ccccc3C2=O)cc1)NC(=O)[C@@H]1CCC(=O)N1Cc1ccccc1`, the figures for the IC50 on Integrin alpha-4/beta-1 [1] and on Integrin alpha-4/beta-1 [2] were 0.98 nM and 107 nM, respectively.
Take `CC(C)CC1CC(=O)N(c2ccc(C[C@H](NC(=O)[C@@H]3CCC(=O)N3Cc3ccccc3)C(=O)O)cc2)C1=O` (stereo not given in full): the IC50 at Integrin alpha-4/beta-1 [1] came out at 0.76 nM; at Integrin alpha-4/beta-1 [2], 41 nM.
As to `O=C(O)[C@H](Cc1ccc(N2C(=O)CC(c3ccc(O)cc3)C2=O)cc1)NC(=O)[C@@H]1CCC(=O)N1Cc1ccccc1` (stereo not given in full), the half-maximal inhibitory concentration (IC50) was 2.6 nM at Integrin alpha-4/beta-1 [1] and 420 nM on Integrin alpha-4/beta-1 [2].
Regarding `O=C(O)[C@H](Cc1ccc(N2C(=O)c3ccncc3C2=O)cc1)NC(=O)[C@@H]1CCC(=O)N1Cc1ccccc1`, the IC50 was 4.3 nM on Integrin alpha-4/beta-1 [1] and 650 nM against Integrin alpha-4/beta-1 [2].

(Values after ChEMBL document CHEMBL1134041, “Imide and lactam derivatives of N-benzylpyroglutamyl-L-phenylalanine as VCAM/VLA-4 antagonists” (Bioorg Med Chem Lett, 2001).)
